Data published in ChEMBL document CHEMBL2073842, “Characterization of the efflux transport of 17beta-estradiol-D-17beta-glucuronide from the brain across the blood-brain barrier” (J Pharmacol Exp Ther, 2001).

How the values were obtained:
[1] = molecular target: T1, Organic anion transporter 3 (Rattus norvegicus, UniProt Q9R1U7); assay: TP_TRANSPORTER: inhibition of E217betaG uptake in Oat3-expressing LLC-PK1 cells; type: functional, cell-based
T1 sequence (Q9R1U7 whole entry): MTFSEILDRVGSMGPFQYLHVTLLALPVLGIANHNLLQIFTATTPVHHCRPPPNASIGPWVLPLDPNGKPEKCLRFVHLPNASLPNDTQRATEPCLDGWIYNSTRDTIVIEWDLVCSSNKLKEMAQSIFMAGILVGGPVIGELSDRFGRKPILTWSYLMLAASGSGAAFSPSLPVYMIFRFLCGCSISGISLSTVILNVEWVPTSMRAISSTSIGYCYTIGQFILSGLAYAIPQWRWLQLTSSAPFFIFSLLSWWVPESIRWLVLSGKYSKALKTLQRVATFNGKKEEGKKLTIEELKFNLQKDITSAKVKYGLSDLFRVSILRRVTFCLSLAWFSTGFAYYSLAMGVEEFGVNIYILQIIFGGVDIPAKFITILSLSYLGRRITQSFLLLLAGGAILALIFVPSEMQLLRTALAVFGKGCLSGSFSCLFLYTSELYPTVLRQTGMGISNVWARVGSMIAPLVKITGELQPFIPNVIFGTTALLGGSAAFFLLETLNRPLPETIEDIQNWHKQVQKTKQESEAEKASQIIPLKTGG

[2] = molecular target: T2, Solute carrier organic anion transporter family member 1A1 (Rattus norvegicus, UniProt P46720); assay: TP_TRANSPORTER: inhibition of E217betaG uptake in Oatp1-expressing LLC-PK1 cells; type: functional, cell-based
T2 sequence (P46720 whole entry): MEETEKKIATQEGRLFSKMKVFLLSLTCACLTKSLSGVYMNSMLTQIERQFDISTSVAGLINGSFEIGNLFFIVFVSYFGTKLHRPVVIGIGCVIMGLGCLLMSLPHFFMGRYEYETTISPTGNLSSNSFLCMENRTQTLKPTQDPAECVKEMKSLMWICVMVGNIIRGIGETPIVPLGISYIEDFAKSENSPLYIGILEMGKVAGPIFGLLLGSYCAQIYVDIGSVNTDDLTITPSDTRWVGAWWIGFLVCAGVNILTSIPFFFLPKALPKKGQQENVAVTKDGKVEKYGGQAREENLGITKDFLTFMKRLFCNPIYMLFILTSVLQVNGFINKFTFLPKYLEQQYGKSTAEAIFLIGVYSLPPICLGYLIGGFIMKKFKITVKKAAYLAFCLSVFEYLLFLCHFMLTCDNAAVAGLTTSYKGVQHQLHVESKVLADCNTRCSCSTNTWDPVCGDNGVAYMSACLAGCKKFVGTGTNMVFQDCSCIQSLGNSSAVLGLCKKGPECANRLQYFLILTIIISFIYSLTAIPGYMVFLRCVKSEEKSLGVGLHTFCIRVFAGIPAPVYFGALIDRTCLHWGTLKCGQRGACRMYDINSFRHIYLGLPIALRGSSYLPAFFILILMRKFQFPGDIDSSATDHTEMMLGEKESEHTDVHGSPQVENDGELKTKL

[3] = molecular target: T3, Solute carrier organic anion transporter family member 1A4 (Rattus norvegicus, UniProt O35913); assay: TP_TRANSPORTER: inhibition of E217betaG uptake in Oatp2-expressing LLC-PK1 cells; type: functional, cell-based
T3 sequence (O35913 whole entry): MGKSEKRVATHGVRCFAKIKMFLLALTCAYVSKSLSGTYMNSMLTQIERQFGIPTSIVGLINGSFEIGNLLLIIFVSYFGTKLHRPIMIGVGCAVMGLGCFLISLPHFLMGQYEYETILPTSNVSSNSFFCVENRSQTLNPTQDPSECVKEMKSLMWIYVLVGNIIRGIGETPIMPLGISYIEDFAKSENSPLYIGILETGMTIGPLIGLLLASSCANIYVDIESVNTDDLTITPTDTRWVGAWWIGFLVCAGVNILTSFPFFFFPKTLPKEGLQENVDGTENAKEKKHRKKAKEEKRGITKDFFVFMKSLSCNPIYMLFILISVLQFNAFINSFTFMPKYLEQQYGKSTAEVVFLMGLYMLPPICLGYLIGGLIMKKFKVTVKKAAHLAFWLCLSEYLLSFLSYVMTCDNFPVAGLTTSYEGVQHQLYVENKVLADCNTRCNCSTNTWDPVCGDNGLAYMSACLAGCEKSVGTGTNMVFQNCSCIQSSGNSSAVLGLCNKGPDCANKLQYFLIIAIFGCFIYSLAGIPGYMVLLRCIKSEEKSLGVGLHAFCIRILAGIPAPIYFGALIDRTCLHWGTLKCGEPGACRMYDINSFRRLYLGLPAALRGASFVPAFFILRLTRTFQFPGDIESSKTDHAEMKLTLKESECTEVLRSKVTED

[4] = substrate: C[C@]12CC[C@@H]3c4ccc(O)cc4CC[C@H]3[C@@H]1CC[C@@H]2O[C@@H]1O[C@H](C(=O)O)[C@@H](O)[C@H](O)[C@H]1O; assay: TP_TRANSPORTER: uptake in Oatp1-expressing LLC-PK1 cells; type: functional, cell-based
[5] = substrate: Nc1ccc(C(=O)NCC(=O)O)cc1; assay: cells, lysate or membranes named
[6] = substrate: C[C@]12CC[C@@H]3c4ccc(O)cc4CC[C@H]3[C@@H]1CC[C@@H]2O[C@@H]1O[C@H](C(=O)O)[C@@H](O)[C@H](O)[C@H]1O; assay: TP_TRANSPORTER: uptake in Oatp2-expressing LLC-PK1 cells; type: functional, cell-based

## Nc1ccc(C(=O)NCC(=O)O)cc1 [AMINOHIPPURIC ACID]
[1]
  Ki: 301 µM

## CCCN(CCC)S(=O)(=O)c1ccc(C(=O)O)cc1 [PROBENECID]
[2]
  Ki: 74.4 µM
[3]
  Ki: 72.9 µM
[1]
  Ki: 20 µM

B1: Solute carrier organic anion transporter family member 1A1 (Rattus norvegicus) (protein)
chain: T2 sequence (P46720 whole entry)
[4]
  Km: 2.58 µM

B2: Solute carrier family 22 member 6 (Rattus norvegicus) (protein)
chain: MAFNDLLKQVGGVGRFQLIQVTMVVAPLLLMASHNTLQNFTAAIPPHHCRPPANANLSKDGGLEAWLPLDKQGQPESCLRFTSPQWGPPFYNGTEANGTRVTEPCIDGWVYDNSTFPSTIVTEWNLVCSHRAFRQLAQSLYMVGVLLGAMVFGYLADRLGRRKVLILNYLQTAVSGTCAAYAPNYTVYCVFRLLSGMSLASIAINCMTLNVEWMPIHTRAYVGTLIGYVYSLGQFLLAGIAYAVPHWRHLQLVVSVPFFIAFIYSWFFIESARWYSSSGRLDLTLRALQRVARINGKQEEGAKLSIEVLRTSLQKELTLSKGQASAMELLRCPTLRHLFLCLSMLWFATSFAYYGLVMDLQGFGVSMYLIQVIFGAVDLPAKFVCFLVINSMGRRPAQMASLLLAGICILVNGIIPKSHTIIRTSLAVLGKGCLASSFNCIFLYTGELYPTVIRQTGLGMGSTMARVGSIVSPLVSMTAEFYPSMPLFIFGAVPVVASAVTALLPETLGQPLPDTVQDLKSRSRGKQNQQQQEQQKQMMPLQASTQEKNGL
[5]
  Km: 85.1 µM

B3: Solute carrier organic anion transporter family member 1A4 (Rattus norvegicus) (protein)
chain: T3 sequence (O35913 whole entry)
[6]
  Km: 17 µM
